Consider two compounds from patent EP1210336B1, “SUBSTITUTED BENZIMIDAZOLES AS NON-NUCLEOSIDE INHIBITORS OF REVERSE TRANSCRIPTASE” (THE UNITED STATES OF AMERICA, as represented by the …, priority 1999, dated 2001).

Where two headings read alike, the source gives them in different places.

Data set [1] concerns the target T1, HIV-1 WT RT (Human immunodeficiency virus type 1 group M subtype B, UniProt P03366).
T1 construct: purified RT protein (0.015 mg/mL) was incubated in a 100 µL reaction mixture
The data set is described as follows: biochemical. Particulars: for inhibition at 10 µM: read-out: %inhibn (10µM).

For data set [2], the system named is WT virus (NL4-3). The data set is described as follows: microbe, parasite or virus in culture. The note with it: for EC50: Human immunodeficiency virus 1, NL43, CEM-SS, read-out: EC50. It is filed as cell-based, HIV-1. A digest of the protocol:
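CEM-SS cells (5 x 10^3/well) infected with HIV-1 at an MOI giving complete killing by day 6 (e.g., 0.01-0.05), with serial half-log compound dilutions in triplicate. After 6 days at 37°C, viability read by XTT reduction at 450 nm. CIC50 derived from protection against cytopathic killing.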

The test system of data set [3] is HIV-1 isolate 4xAZT/L100I. The data set is described as follows: Cytopathic cell killing assay, cross-resistance profile, infected MT-4 cells. It is filed as cell-based. In short, it runs like this:
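Cytopathic protection assay: cells at 5 x 10^3/well infected with pre-titered HIV isolate (e.g., MOI 0.01-0.05), compound serial half-log dilutions in triplicate.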

Data set [4] deals with T1, HIV-1 WT RT. Particulars: reported by Pauwels et al. (TIBO) and Buckheit et al. (thiazolobenzimidazole); read-out: IC50 for rC:dG; cited from earlier work.
[5] abbreviates: Table 1, WT RT, 10 µM drug concentration.
Setting [6] is: Human immunodeficiency virus 1, MT4, Table 4, isolate 4xAZT/L.1001.
Where [7] appears, read: Human immunodeficiency virus 1, MT4, Table 8, isolate 4XA7T L 1001.
The mark [8] stands for this setting: Human immunodeficiency virus 1, MT4, Table 9, isolate 4XAZT /L1001.

Broadly, the IC50 is the midpoint of a concentration-inhibition curve. A word on the EC50: it is the concentration that produces a half-maximal response.

As for `Cc1cccc2c1nc(-c1c(F)cccc1F)n2Cc1c(F)cccc1F` [compound 33, 1-(2,6-difluorobenzyl)-2-(2,6-difluorophenyl)-4-methylbenzimidazole], the IC50 in data set [1] (HIV-1 WT RT, read-out: IC50) amounted to 200 nM; in data set [1] (Table 1, quantity of drug required to reduce WT RT enzyme activity by 50%, read-out: IC50), 200 nM; in data set [1] (Table 7, HIV-1 WT RT, read-out: IC50) it was 200 nM; in data set [1] (Table 11, WT RT, read-out: IC50), 200 nM; in data set [1] (WT RT, read-out: IC50) it was 200 nM. Moreover, the inhibition at 10 µM in data set [1] (setting [5]) is 92%. In data set [1] (Table 2, WT RT, 10 µM drug concentration), the “%inhibn (10µM)” value is given as 92%. Moreover, in data set [1] (Table 7, WT HIV-1 RT, 1 µM drug, read-out: %inhibn (1µM)), the inhibition at 1 µM turned out to be 71%. Besides, in data set [2] (Figures 10-12, result in words), the “cytotoxicity and anti-viral effect (summary graph)” value is given as “very effective therapeutic dose”. Also, the EC50 in data set [2] (Table 7, concentration reducing cell killing or virus production by 50%, HIV-1 WT) is 440 nM; in data set [2] (Table 11, CEMSS/NL4-3, NRVC = reduction in viral CPE not seen (footnote)), 440 nM; in data set [3] (setting [6]) it was 200 nM; in data set [3] (setting [7]), 200 nM; in data set [3] (setting [8]), 200 nM. In addition, the therapeutic index result in data set [2] (difference between efficacy of the drug and cellular toxicity, Figure 10) was “greater than one log in concentration”.
Consider `Fc1cccc(F)c1C1SCc2nc3ccccc3n21` (stereo not drawn) [TZB, 1-(2,6-difluorophenyl)-1H,3H-thiazolo[3,4-a]benzimidazole, reference compound], for which the IC50 in data set [1] and in data set [4] was 500 nM throughout. Also, the inhibition at 10 µM in data set [1] (setting [5]) stood at 84%. Further, the EC50 in data set [3] (setting [6]) came to 1700 nM; in data set [3] (setting [7]), 1100 nM; in data set [3] (setting [8]) it was 1100 nM.
